According to ChEMBL document CHEMBL5465560, “Selectivity Literature for EUbOPEN Chemogenomic Library” (2024):

Legend:
[1] = target: Serine/threonine-protein kinase OSR1 (Homo sapiens) (UniProt O95747); assay: Selectivity interaction (KinomeScan (DiscoverX)) EUB0000045b OXSR1
[2] = target: Protein-tyrosine kinase 6 (Homo sapiens, UniProt Q13882); assay: Selectivity interaction (KinomeScan (DiscoverX)) EUB0000045b PTK6
[3] = target: Ribosomal protein S6 kinase alpha-5 (Homo sapiens) (UniProt O75582); assay: Selectivity interaction (KinomeScan (DiscoverX)) EUB0000045b RPS6KA5
[4] = target: T1, Serine/threonine-protein kinase TNNI3K (Homo sapiens) (UniProt Q59H18); assay: Selectivity interaction (KinomeScan (DiscoverX)) EUB0000695a TNNI3K; conditions: at 100 nM
T1 sequence (whole entry): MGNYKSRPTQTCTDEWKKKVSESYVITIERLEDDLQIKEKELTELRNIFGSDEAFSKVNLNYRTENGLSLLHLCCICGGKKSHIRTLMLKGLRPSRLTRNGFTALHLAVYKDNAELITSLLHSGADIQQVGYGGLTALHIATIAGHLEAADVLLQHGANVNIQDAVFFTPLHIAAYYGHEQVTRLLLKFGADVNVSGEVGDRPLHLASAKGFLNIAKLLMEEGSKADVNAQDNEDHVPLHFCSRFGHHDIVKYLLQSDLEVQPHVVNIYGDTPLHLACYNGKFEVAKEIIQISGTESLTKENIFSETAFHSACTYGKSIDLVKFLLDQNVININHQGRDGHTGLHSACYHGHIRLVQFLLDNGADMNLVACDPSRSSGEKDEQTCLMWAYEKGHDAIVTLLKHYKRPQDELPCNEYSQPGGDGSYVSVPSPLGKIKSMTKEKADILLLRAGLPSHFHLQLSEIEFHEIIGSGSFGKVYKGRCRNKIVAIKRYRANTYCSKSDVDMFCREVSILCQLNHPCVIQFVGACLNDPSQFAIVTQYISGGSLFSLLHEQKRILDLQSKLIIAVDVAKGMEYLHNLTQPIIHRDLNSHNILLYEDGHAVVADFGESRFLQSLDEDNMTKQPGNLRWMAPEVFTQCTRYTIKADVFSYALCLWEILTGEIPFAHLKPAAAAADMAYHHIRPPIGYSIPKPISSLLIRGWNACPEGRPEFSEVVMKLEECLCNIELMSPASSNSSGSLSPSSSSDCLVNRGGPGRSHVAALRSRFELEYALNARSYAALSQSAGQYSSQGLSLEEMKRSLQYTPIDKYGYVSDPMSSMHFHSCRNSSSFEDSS

[5] = target: T2, Ephrin type-B receptor 3 (Homo sapiens) (UniProt P54753); assay: Selectivity interaction (KinomeScan (DiscoverX)) EUB0001079a EPHB3; conditions: at 1 µM
T2 sequence (whole entry): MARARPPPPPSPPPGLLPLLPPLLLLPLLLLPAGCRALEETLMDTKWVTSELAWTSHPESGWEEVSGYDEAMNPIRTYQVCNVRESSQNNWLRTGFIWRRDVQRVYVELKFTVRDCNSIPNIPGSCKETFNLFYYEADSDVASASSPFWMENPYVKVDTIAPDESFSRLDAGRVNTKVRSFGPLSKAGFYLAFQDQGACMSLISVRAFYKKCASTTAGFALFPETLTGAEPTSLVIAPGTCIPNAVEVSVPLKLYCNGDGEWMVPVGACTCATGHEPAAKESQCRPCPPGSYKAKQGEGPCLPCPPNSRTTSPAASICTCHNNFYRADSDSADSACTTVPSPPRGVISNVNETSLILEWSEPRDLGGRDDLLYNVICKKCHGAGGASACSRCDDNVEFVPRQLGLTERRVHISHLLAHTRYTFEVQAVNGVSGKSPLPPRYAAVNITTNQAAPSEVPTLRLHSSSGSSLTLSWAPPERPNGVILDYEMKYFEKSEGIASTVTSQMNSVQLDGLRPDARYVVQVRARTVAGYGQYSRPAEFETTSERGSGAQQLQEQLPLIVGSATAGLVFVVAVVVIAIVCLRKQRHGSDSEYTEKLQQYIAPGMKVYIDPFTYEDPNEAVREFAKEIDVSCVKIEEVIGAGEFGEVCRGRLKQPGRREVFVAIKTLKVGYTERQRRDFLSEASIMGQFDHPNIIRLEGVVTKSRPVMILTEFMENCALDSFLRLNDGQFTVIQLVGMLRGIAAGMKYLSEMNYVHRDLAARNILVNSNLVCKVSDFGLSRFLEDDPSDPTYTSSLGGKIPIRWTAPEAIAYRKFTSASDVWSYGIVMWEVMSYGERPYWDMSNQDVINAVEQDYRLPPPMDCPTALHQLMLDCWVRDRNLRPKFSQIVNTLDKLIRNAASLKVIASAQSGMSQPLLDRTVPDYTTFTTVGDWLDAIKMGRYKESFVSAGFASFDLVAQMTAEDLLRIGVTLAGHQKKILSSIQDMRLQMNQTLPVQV

[6] = target: cAMP-dependent protein kinase catalytic subunit alpha (Homo sapiens, UniProt P17612); assay: Selectivity interaction (KinomeScan (DiscoverX)) EUB0001079a PRKACA; conditions: at 1 µM
[7] = target: Myosin light chain kinase, smooth muscle (Homo sapiens, UniProt Q15746); assay: Selectivity interaction (KinomeScan (DiscoverX)) EUB0000666a MYLK; conditions: at 10 µM
[8] = target: Rho-associated protein kinase 2 (Homo sapiens, UniProt O75116); assay: Selectivity interaction (KinomeScan (DiscoverX)) EUB0000666a ROCK2; conditions: at 10 µM
[9] = target: Tyrosine-protein kinase SYK (Homo sapiens, UniProt P43405); assay: Selectivity interaction (KinomeScan (DiscoverX)) EUB0000666a SYK; conditions: at 10 µM
[10] = target: Dual specificity protein kinase CLK1 (Homo sapiens, UniProt P49759); assay: Selectivity interaction (SelectScreen profiling (Invitrogen)) EUB0000607a CLK1; conditions: at 2 µM
[11] = target: Calcium/calmodulin-dependent protein kinase kinase 1 (Homo sapiens) (UniProt Q8N5S9); assay: Selectivity interaction (Kinase panel (Invitrogen)) EUB0000639a CAMKK1; conditions: at 200 nM
[12] = target: eIF-2-alpha kinase GCN2 (Homo sapiens) (UniProt Q9P2K8); assay: Selectivity interaction (ActivX KiNativ screen (kinase selectivity in THP-1 cell lysates)) EUB0000639a EIF2AK4; type: subcellular; conditions: lysate, at 0.01 µM
[13] = target: Angiopoietin-1 receptor (Homo sapiens) (UniProt Q02763); conditions: at 10 µM
[14] = target: Dual specificity testis-specific protein kinase 1 (Homo sapiens) (UniProt Q15569); conditions: at 10 µM
[15] = target: Tyrosine-protein kinase receptor UFO (Homo sapiens) (UniProt P30530); assay: Selectivity interaction (KinomeScan (DiscoverX)) EUB0000092b AXL; conditions: at 10 µM
[16] = target: Ribosomal protein S6 kinase alpha-4 (Homo sapiens) (UniProt O75676); assay: Selectivity interaction (KinomeScan (DiscoverX)) EUB0000092b RPS6KA4; conditions: at 10 µM
Chain of Ribosomal protein S6 kinase alpha-4 (Homo sapiens) (O75676 whole entry, looked up): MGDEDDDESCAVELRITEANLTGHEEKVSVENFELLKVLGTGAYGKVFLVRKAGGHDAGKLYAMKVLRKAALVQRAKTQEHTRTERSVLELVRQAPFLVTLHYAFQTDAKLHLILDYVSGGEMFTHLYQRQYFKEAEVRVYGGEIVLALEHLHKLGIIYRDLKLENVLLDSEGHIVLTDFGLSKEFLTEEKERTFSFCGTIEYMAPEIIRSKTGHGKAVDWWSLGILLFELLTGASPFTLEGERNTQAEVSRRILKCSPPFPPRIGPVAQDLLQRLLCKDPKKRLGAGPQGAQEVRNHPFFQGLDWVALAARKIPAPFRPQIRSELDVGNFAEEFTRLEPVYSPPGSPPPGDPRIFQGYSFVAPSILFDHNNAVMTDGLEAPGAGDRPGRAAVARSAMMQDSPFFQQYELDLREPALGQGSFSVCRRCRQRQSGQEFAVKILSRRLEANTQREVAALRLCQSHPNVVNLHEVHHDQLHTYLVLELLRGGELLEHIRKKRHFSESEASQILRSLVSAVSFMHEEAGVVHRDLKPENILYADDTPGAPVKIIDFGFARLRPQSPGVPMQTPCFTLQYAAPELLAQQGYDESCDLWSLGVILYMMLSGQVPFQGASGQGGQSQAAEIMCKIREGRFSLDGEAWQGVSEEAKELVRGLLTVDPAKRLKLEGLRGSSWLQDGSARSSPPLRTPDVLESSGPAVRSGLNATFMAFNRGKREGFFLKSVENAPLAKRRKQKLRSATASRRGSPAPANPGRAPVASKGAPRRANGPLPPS

Chain of Serine/threonine-protein kinase OSR1 (Homo sapiens) (O95747 2-527 limits assumed): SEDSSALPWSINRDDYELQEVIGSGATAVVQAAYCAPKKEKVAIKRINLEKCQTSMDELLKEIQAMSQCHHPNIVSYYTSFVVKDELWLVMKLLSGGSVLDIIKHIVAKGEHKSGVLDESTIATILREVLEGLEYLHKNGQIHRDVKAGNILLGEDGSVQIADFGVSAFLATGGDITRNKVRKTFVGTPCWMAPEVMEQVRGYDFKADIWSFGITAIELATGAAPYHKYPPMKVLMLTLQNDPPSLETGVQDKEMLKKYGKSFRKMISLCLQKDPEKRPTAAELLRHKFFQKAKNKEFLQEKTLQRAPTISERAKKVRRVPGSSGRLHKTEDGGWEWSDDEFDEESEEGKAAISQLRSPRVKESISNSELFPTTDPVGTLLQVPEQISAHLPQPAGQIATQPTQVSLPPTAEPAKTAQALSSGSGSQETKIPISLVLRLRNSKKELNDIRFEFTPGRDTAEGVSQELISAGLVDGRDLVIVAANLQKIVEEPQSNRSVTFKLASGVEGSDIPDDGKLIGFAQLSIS
Chain of Protein-tyrosine kinase 6 (Q13882 whole entry, looked up): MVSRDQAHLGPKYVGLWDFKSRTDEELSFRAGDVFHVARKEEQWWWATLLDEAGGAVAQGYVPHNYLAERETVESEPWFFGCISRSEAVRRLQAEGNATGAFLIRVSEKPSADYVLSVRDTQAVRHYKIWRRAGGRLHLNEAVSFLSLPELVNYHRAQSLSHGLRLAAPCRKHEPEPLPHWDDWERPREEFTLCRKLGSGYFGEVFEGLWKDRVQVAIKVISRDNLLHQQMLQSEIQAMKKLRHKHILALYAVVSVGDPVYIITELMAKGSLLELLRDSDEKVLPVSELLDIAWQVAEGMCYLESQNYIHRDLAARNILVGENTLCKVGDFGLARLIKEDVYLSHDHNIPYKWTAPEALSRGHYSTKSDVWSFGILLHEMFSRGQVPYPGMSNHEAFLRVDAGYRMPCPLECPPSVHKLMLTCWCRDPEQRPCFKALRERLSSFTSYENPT
Chain of Ribosomal protein S6 kinase alpha-5 (Homo sapiens) (O75582 whole entry, looked up): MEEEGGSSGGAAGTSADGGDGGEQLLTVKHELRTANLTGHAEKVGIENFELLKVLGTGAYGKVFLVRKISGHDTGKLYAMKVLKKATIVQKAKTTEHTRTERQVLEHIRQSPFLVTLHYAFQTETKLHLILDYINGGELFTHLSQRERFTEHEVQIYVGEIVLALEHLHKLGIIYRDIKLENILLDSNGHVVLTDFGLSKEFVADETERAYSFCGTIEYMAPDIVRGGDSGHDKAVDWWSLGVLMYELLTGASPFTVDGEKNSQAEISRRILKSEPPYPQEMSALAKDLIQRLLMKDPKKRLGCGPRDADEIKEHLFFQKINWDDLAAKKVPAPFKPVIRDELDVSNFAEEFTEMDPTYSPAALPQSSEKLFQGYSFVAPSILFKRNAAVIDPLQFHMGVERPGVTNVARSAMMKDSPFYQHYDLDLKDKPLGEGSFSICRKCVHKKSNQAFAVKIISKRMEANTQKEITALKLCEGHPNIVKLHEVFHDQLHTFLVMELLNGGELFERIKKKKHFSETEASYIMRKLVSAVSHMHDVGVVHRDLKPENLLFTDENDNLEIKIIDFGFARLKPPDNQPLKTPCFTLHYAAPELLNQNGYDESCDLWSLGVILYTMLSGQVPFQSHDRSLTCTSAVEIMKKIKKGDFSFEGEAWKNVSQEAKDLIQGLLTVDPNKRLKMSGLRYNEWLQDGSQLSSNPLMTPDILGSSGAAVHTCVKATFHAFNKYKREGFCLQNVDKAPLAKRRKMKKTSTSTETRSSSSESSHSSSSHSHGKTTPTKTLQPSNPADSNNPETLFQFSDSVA
Chain of Dual specificity protein kinase CLK1 (P49759 whole entry, looked up): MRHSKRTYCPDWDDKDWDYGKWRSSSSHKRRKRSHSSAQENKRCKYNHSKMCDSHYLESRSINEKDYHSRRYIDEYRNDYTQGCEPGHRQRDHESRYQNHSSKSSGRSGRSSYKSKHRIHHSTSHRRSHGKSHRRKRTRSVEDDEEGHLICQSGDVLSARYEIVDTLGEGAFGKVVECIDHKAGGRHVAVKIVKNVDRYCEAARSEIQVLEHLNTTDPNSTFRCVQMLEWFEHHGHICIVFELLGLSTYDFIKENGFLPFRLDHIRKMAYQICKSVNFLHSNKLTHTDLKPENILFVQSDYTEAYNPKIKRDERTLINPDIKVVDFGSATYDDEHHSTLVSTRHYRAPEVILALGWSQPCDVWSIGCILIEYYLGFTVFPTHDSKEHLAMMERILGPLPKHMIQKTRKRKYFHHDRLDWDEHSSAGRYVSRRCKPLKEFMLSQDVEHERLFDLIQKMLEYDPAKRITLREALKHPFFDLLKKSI
Chain of Angiopoietin-1 receptor (Homo sapiens) (Q02763 whole entry): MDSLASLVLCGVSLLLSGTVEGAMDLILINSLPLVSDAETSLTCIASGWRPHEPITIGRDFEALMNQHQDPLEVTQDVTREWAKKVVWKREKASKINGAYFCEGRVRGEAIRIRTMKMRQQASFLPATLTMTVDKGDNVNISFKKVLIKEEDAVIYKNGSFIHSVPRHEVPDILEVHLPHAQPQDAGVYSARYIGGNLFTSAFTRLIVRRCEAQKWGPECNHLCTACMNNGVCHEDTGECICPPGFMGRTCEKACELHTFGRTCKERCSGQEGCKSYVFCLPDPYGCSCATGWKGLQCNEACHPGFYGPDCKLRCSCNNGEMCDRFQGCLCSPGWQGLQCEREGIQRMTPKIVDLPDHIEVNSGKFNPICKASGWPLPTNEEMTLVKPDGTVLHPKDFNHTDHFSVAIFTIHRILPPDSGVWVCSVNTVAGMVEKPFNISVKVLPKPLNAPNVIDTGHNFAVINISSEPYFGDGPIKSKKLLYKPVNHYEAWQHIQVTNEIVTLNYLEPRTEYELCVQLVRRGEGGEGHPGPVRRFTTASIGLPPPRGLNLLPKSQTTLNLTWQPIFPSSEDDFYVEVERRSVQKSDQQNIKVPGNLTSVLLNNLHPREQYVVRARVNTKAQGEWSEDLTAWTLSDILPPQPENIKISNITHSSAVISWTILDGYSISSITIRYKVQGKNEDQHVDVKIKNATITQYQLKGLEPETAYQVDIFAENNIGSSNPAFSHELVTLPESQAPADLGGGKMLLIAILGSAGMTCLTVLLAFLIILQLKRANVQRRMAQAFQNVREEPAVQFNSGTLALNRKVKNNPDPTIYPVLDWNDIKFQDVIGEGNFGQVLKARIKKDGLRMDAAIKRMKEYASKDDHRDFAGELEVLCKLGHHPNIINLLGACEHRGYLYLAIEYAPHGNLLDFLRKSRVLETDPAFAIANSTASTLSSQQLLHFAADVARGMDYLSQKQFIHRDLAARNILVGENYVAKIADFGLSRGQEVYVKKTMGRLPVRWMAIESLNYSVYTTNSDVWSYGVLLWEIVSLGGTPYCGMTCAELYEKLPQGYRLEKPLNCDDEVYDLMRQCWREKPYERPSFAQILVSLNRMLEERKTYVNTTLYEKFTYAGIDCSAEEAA
Chain of Calcium/calmodulin-dependent protein kinase kinase 1 (Homo sapiens) (Q8N5S9 whole entry, looked up): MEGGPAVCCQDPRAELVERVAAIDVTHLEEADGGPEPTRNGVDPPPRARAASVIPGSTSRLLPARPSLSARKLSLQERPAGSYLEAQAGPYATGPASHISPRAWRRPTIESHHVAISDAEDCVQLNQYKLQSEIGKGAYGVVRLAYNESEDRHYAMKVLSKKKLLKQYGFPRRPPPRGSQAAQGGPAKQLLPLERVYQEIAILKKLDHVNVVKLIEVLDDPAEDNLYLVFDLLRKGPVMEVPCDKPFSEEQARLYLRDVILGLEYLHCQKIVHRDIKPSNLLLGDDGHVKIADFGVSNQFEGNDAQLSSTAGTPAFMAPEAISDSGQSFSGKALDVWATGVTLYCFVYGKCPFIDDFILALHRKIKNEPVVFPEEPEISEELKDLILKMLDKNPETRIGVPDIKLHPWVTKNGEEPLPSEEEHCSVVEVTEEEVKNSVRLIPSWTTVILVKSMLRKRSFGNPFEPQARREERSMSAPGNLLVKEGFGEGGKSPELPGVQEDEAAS

Question: What does the source list for `C=CC(=O)Nc1cc(-n2c(=O)ccc3cnc4ccc(-c5ccc(NS(C)(=O)=O)cc5)cc4c32)ccc1C`?
Answer: % of control ([1]; at 1 µM): 100%; % of control ([1]; at 10 µM): 94%; % of control ([2]; at 1 µM): 100%; % of control ([2]; at 10 µM): 77%; % of control ([3]; at 1 µM): 100%; % of control ([3]; at 10 µM): 100%

Question: For `Cc1cc(F)c(C(=O)Nc2cccc(-c3nncn3C(C)C)n2)cc1-n1cnc(C2CC2)c1`, which % of control [4] is on record?
Answer: 100%

Question: What does the source list for `Nc1cnc(N2CCc3cc(S(=O)(=O)Nc4c(F)cc(Cl)cc4F)cc(N4CCCC4=O)c32)nc1` [TP-020n]?
Answer: % of control [5]: 100%; % of control [6]: 100%

Question: How did the % of control [7] turn out when `O=C(NOC[C@H](O)CO)c1ccc(F)c(F)c1Nc1ccc(I)cc1F` was run?
Answer: 100%

Question: And the % of control [8]?
Answer: 100%

Question: What about the % of control [9] of the same compound?
Answer: 100%

Question: For `CNC(=O)Nc1ccc(-c2nc(N3CC4CCC(C3)O4)c3cnn(C4CCC5(CC4)OCCO5)c3n2)cc1`, which % of inhibition [10] is on record?
Answer: -3%

Question: Which results are given for `CC[C@@H]1[C@H](F)C(=O)N[C@@H]1COc1nccc2cc(C(N)=O)c(OC)cc12` [ZIMLOVISERTIB]?
Answer: % of inhibition [11]: 2.23%; % of inhibition [12]: 2%

Question: Which % of control [13] does the source give for `CCN(CC)CCCCNc1ncc2cc(-c3cc(OC)cc(OC)c3)c(NC(=O)NC(C)(C)C)nc2n1` here?
Answer: 100%

Question: And the % of control [14]?
Answer: 100%

Question: How did the % of control [15] turn out when `CCC(=O)N1CCN(c2ccc(-n3c(=O)ccc4cnc5ccc(-c6cnc7ccccc7c6)cc5c43)cc2C(F)(F)F)CC1` was run?
Answer: 46%

Question: And the % of control [16]?
Answer: 100%
